{"source": "patent US4720489A", "about": "“Hair growth modification with ornithine decarboxylase inhibitors” (priority 1984, dated 1988)", "key": {"[1]": {"system": "Flank Organ Hair Mass", "experiment": "similar series of experiments comparing a variety of compositions, flank organ hair mass (Table III)", "format": "in vivo, hamster", "parameters": "Flank Organ Hair Mass, Untreated / Flank Organ Hair Mass, Treated: unit not given here", "experimental": "Additional experiments were conducted to test topical regimens composed of a combination of 2(difluoromethyl)-2,5-diaminopentanoic acid along with antiandrogens. […] In each case, hamsters were treated for 15 days (Monday-Friday) during a 21-day interval. Flank organ hairs were epilated on the first day of treatment and re-epilated on the sixth day of treatment. The mass of flank organ hair represents the regrowth during the final 14 days of the 21-day interval."}, "[2]": {"system": "flank organ hair mass in adult intact male hamsters", "experiment": "efficacy of topical compositions in reducing flank organ hair mass in adult intact male hamsters (Tables I and II)", "format": "in vivo, hamster", "details": "15 days (Mon-Fri) in 21-day interval, versus vehicle controls", "experimental": "Summarized below in Tables I and II are the results of two experiments comparing the efficacy of several compositions in reducing the flank organ hair mass in adult intact male hamsters. In each case, hamsters were treated for 15 days (Monday-Friday) during a 21-day interval. Flank organ hairs were epilated on the first day of treatment and re-epilated on the sixth day of treatment. […] The results for percent inhibition shown below are based upon comparisons between the hair mass values of hairs harvested from treated flank organs of experimental animals and those obtained from vehicle-treated control animals."}, "[3]": {"system": "androgen-mediated hair growth in male hamsters (flank organ hair mass)", "experiment": "inhibition of androgen-mediated hair growth in male hamsters following topical application for 21 consecutive days (flank organ hair mass)", "format": "in vivo, hamster", "details": "500 micrograms in 10 microliters 70% ethanol, regrowth during final ten days", "experimental": "Five hundred micrograms of the compound in ten microliters of 70% ethanol was applied topically for 21 consecutive days. Hair mass changes were determined by comparing the regrowth of hair during the final ten days of treatment. […] Furthermore, the magnitude of hair mass inhibition in the hamsters treated with the ODC inhibitor (60%) approached that observed in 21-day castrated hamsters (78%)."}, "[4]": {"system": "ornithine decarboxylase (ODC), flank organ", "experiment": "flank organ ODC activity after topical application for 21 consecutive days", "format": "in vivo, hamster", "details": "500 micrograms in 10 microliters 70% ethanol, versus hamsters castrated for 21 days"}, "[5]": {"system": "brain 4-aminobutyric acid levels", "details": "transformation catalyzed by mitochondrial monoamine oxidase; known secondary pharmacological effect; cited from earlier work"}, "[6]": {"details": "5 micrograms per square centimeter"}, "[7]": {"details": "50 micrograms per square centimeter"}, "[8]": {"details": "250 micrograms per square centimeter"}, "[9]": {"details": "500 micrograms per square centimeter"}, "[10]": {"details": "Table II, 500 micrograms per square centimeter"}}}
{"smiles": "NCCCC(N)(C(=O)O)C(F)F", "note": "(stereo not shown) [2(difluoromethyl)-2,5-diaminopentanoic acid]", "values": [{"measurement": "% Inhibition (flank organ hair mass)", "setting": "[1]; [6]", "value": 2, "unit": "%"}, {"measurement": "% Inhibition (flank organ hair mass)", "setting": "[1]; [7]", "value": 7, "unit": "%"}, {"measurement": "% Inhibition (flank organ hair mass)", "setting": "[1]; [8]", "value": 24, "unit": "%"}, {"measurement": "% Inhibition (flank organ hair mass)", "setting": "[1]; [9]", "value": 33, "unit": "%"}, {"measurement": "Flank Organ Hair Mass, Treated", "setting": "[1]; [6]", "value": 3.20}, {"measurement": "Flank Organ Hair Mass, Treated", "setting": "[1]; [7]", "value": 2.85}, {"measurement": "Flank Organ Hair Mass, Treated", "setting": "[1]; [8]", "value": 2.29}, {"measurement": "Flank Organ Hair Mass, Treated", "setting": "[1]; [9]", "value": 1.81}, {"measurement": "Flank Organ Hair Mass, Untreated", "setting": "[1]; treatment group 5 micrograms per square centimeter", "value": 3.26}, {"measurement": "Flank Organ Hair Mass, Untreated", "setting": "[1]; treatment group 50 micrograms per square centimeter", "value": 3.05}, {"measurement": "Flank Organ Hair Mass, Untreated", "setting": "[1]; treatment group 250 micrograms per square centimeter", "value": 3.00}, {"measurement": "Flank Organ Hair Mass, Untreated", "setting": "[1]; treatment group 500 micrograms per square centimeter", "value": 2.71}, {"measurement": "% Inhibition (flank organ hair mass)", "setting": "[2]; Table I, 500 micrograms per square centimeter", "value": 46, "unit": "%"}, {"measurement": "% Inhibition (flank organ hair mass)", "setting": "[2]; [10]", "value": 41, "unit": "%"}, {"measurement": "magnitude of hair mass inhibition", "setting": "[3]", "value": 60, "unit": "%"}, {"measurement": "flank organ ODC activity", "setting": "[4]", "value": "reduced to levels found in hamsters castrated for 21 days"}]}
{"smiles": "C#CC(N)CCCN", "note": "(stereo not shown) [5-hexyne-1,4-diamine]", "values": [{"measurement": "brain 4-aminobutyric acid levels", "setting": "[5]", "value": "increases in brain 4-aminobutyric acid levels"}]}
{"smiles": "CC(=O)O[C@]1(C(C)=O)CC[C@H]2[C@@H]3C=C(Cl)C4=CC(=O)CC[C@]4(C)[C@H]3CC[C@@]21C", "note": "[Chloromadinone acetate, chlormadinone acetate]", "values": [{"measurement": "% Inhibition (flank organ hair mass)", "setting": "[2]; [10]", "value": 41, "unit": "%"}]}
{"smiles": "CC(=O)[C@H]1CC[C@H]2[C@@H]3CCC4=CC(=O)CC[C@]4(C)[C@H]3CC[C@]12C", "note": "[Progesterone, progesterone]", "values": [{"measurement": "% Inhibition (flank organ hair mass)", "setting": "[2]; Table I, 1000 micrograms per square centimeter", "value": 50, "unit": "%"}]}
